Format in all cases: cell-based
Assay [1] addresses T1, N-type calcium channels (α1B+α2δ+β1b cDNA subunits) (Rattus norvegicus, UniProt Q02294).
T1 construct: expressed in transfected cells
Put plainly: Whole cell patch clamp, tonic and frequency dependent block, N-type channels in HEK 293 (Example 5). As to conditions: for % Block (100 nM) 0.03 Hz: 0.03 Hz (tonic block); for % Block (100 nM) 0.2 Hz: 0.2 Hz (frequency dependent block). The method, then: (§1) N-type calcium channel blocking activity was assayed in human embryonic kidney cells, HEK 293, stably transfected with the rat brain N-type calcium channel subunits (α1B+α2δ+β1b cDNA subunits). Alternatively, N-type calcium channels (α1B+α2δ+β1b cDNA subunits), L-type channels (α1C+α2δ+β1b cDNA subunits) and P/Q-type channels (α1A+α2δ+β1b cDNA subunits) were transiently expressed in HEK 293 cells. Briefly, cells were cultured in Dulbecco's modified eagle medium (DMEM) supplemented with 10% fetal bovine serum, 200 U/ml penicillin and 0.2 mg/ml streptomycin at 37° C. with 5% CO2. At 85% confluency cells were split with 0.25% trypsin/1 mM EDTA and plated at 10% confluency on glass coverslips. At 12 hours the medium was replaced and the cells transiently transfected using a standard calcium phosphate protocol and the appropriate calcium channel cDNAs. Fresh DMEM was supplied and the cells transferred to 28° C./5% CO2. Cells were incubated for 1 to 2 days to whole cell recording.
(§2) Whole cell patch clamp experiments were performed using an Axopatch 200B amplifier (Axon Instruments, Burlingame, Calif.) linked to a personal computer equipped with pCLAMP software. The external and internal recording solutions contained, respectively, 5 mM BaCl2, 1 mM MgCl2, 10 mM HEPES, 40 mM TEACl, 10 mM glucose, 87.5 mM CsCl (pH 7.2) and 108 mM CsMS, 4 mM MgCl2, 9 mM EGTA, 9 mM HEPES (pH 7.2). Currents were typically elicited from a holding potential of −80 mV to +10 mV using Clampex software (Axon Instruments). Typically, currents were first elicited with low frequency stimulation (0.03 Hz) and allowed to stabilize prior to application of the compounds. The compounds were then applied during the low frequency pulse trains for two to three minutes to assess tonic block, and subsequently the pulse frequency was increased to 0.2 Hz to assess frequency dependent block. Data were analyzed using Clampfit (Axon Instruments) and SigmaPlot 4.0 (Jandel Scientific).

Assay [2] deals with P/Q-type channels (α1A+α2δ+β1b cDNA subunits) (UniProt P54282). In words: Whole cell patch clamp, tonic and frequency dependent block, P/Q-type channels in HEK 293 (Example 5). The method, then: as §1, §2
(§3) Tables 2 and 3 show the results of similar experiments conducted with P/Q-type and L-type channels expressed in HEK 293 cells.

The subject of assay [3] is P/Q-type channels (α1A+α2δ+β1b cDNA subunits). The description is as above. As to conditions: in general. The protocol: as §1, §2, §3
Assay [4] addresses T2, L-type channels (α1C+α2δ+β1b cDNA subunits) (UniProt P22002).
T2 construct: other: α1C (L-type), 100 nM, 0.03 Hz; other: α1C (L-type), 100 nM, 0.2 Hz; other: α1C (L-type), 0.03 Hz; other: α1C (L-type), 0.2 Hz
In words: Whole cell patch clamp, tonic and frequency dependent block, L-type channels in HEK 293 (Example 5). The protocol: as §1, §2, §3

Assay [5] deals with L-type channels (α1C+α2δ+β1b cDNA subunits). The assay is described as above. The note with it: in general. The protocol:
as §1, §2, §3

Assay [6] deals with T3, rat α1B+α2b+β1b channels (N-type channels) (Rattus norvegicus, UniProt Q02294).
T3 construct: expressed in transfected cells
In words: Whole cell patch recordings, N-type calcium channel block (Examples 1 and 4). The note with it: block of N-type calcium channels, HEK cells, 5 mM barium as charge carrier. The protocol: Antagonist activity was measured using whole cell patch recordings on human embryonic kidney cells either stably or transiently expressing rat α1B+α2b+β1b channels (N-type channels) with 5 mM barium as a charge carrier.
For transient expression, host cells, such as human embryonic kidney cells, HEK 293 (ATCC# CRL 1573) were grown in standard DMEM medium supplemented with 2 mM glutamine and 10% fetal bovine serum. HEK 293 cells were transfected by a standard calcium-phosphate-DNA coprecipitation method using the rat α1B+β1b+α2δ N-type calcium channel subunits in a vertebrate expression vector (for example, see Current Protocols in Molecular Biologyl ).
After an incubation period of from 24 to 72 hrs the culture medium was removed and replaced with external recording solution (see below). Whole cell patch clamp experiments were performed using an Axopatch 200B amplifier (Axon Instruments, Burlingame, Calif.) linked to an IBM compatible personal computer equipped with pCLAMP software. Borosilicate glass patch pipettes (Sutter Instrument Co., Novato, Calif.) were polished (Microforge, Narishige, Japan) to a resistance of about 4 MΩ when filled with cesium methanesulfonate internal solution (composition in MM: 109 CsCH3SO4, 4 MgCl2, 9 EGTA, 9 HEPES, pH 7.2). Cells were bathed in 5 mM Ba^++ (in mM: 5 BaCl2, 1 MgCl2, 10 HEPES, 40 tetraethylammonium chloride, 10 glucose, 87.5 CsCl pH 7.2). Current data shown were elicited by a train of 100 ms test pulses at 0.066 Hz from −100 mV and/or −80 mV to various potentials (min. −20 mV, max. +30 mV). Drugs were perfused directly into the vicinity of the cells using a microperfusion system.
Normalized dose-response curves were fit (Sigmaplot 4.0, SPSS Inc., Chicago, Ill.) by the Hill equation to determine IC50 values. Steady-state inactivation curves were plotted as the normalized test pulse amplitude following 5 s inactivating prepulses at +10 mV increments. Inactivation curves were fit (Sigmaplot 4.0) with the Boltzman equation, Ipeak (normalized)=1/(1+exp((V−Vh)z/25.6)), where V and Vh are the conditioning and half inactivation potentials, respectively, and z is the slope factor.

Setting [7] is: Table 4 summary, 0.2 Hz, N-type, unit not given in Table 4 (μM in Table 1), read-out: N (IC50 values).
[8] abbreviates: α1B (N-type), 0.03 Hz, read-out: Estimated IC50 (μM) 0.03 Hz.
The mark [9] stands for this setting: α1B (N-type), 0.2 Hz, read-out: Estimated IC50 (μM) 0.2 Hz.
Where [10] appears, read: Table 4 summary, 0.2 Hz, P/Q-type, unit not given in Table 4 (μM in Table 2), read-out: P/Q (IC50 values).
[11] abbreviates: α1A (P/Q-type), 0.03 Hz, read-out: Estimated IC50 (μM) 0.03 Hz.
The mark [12] stands for this setting: α1A (P/Q-type), 0.2 Hz, read-out: Estimated IC50 (μM) 0.2 Hz.
Setting [13] is: Table 4 summary, 0.2 Hz, L-type, unit not given in Table 4 (μM in Table 3), read-out: L (IC50 values).
[14] abbreviates: α1C (L-type), 0.03 Hz, read-out: Estimated IC50 (μM) 0.03 Hz.
The mark [15] stands for this setting: α1C (L-type), 0.2 Hz, read-out: Estimated IC50 (μM) 0.2 Hz.

Where two headings read alike, the source gives them in different places.

T1 sequence (Q02294 whole entry): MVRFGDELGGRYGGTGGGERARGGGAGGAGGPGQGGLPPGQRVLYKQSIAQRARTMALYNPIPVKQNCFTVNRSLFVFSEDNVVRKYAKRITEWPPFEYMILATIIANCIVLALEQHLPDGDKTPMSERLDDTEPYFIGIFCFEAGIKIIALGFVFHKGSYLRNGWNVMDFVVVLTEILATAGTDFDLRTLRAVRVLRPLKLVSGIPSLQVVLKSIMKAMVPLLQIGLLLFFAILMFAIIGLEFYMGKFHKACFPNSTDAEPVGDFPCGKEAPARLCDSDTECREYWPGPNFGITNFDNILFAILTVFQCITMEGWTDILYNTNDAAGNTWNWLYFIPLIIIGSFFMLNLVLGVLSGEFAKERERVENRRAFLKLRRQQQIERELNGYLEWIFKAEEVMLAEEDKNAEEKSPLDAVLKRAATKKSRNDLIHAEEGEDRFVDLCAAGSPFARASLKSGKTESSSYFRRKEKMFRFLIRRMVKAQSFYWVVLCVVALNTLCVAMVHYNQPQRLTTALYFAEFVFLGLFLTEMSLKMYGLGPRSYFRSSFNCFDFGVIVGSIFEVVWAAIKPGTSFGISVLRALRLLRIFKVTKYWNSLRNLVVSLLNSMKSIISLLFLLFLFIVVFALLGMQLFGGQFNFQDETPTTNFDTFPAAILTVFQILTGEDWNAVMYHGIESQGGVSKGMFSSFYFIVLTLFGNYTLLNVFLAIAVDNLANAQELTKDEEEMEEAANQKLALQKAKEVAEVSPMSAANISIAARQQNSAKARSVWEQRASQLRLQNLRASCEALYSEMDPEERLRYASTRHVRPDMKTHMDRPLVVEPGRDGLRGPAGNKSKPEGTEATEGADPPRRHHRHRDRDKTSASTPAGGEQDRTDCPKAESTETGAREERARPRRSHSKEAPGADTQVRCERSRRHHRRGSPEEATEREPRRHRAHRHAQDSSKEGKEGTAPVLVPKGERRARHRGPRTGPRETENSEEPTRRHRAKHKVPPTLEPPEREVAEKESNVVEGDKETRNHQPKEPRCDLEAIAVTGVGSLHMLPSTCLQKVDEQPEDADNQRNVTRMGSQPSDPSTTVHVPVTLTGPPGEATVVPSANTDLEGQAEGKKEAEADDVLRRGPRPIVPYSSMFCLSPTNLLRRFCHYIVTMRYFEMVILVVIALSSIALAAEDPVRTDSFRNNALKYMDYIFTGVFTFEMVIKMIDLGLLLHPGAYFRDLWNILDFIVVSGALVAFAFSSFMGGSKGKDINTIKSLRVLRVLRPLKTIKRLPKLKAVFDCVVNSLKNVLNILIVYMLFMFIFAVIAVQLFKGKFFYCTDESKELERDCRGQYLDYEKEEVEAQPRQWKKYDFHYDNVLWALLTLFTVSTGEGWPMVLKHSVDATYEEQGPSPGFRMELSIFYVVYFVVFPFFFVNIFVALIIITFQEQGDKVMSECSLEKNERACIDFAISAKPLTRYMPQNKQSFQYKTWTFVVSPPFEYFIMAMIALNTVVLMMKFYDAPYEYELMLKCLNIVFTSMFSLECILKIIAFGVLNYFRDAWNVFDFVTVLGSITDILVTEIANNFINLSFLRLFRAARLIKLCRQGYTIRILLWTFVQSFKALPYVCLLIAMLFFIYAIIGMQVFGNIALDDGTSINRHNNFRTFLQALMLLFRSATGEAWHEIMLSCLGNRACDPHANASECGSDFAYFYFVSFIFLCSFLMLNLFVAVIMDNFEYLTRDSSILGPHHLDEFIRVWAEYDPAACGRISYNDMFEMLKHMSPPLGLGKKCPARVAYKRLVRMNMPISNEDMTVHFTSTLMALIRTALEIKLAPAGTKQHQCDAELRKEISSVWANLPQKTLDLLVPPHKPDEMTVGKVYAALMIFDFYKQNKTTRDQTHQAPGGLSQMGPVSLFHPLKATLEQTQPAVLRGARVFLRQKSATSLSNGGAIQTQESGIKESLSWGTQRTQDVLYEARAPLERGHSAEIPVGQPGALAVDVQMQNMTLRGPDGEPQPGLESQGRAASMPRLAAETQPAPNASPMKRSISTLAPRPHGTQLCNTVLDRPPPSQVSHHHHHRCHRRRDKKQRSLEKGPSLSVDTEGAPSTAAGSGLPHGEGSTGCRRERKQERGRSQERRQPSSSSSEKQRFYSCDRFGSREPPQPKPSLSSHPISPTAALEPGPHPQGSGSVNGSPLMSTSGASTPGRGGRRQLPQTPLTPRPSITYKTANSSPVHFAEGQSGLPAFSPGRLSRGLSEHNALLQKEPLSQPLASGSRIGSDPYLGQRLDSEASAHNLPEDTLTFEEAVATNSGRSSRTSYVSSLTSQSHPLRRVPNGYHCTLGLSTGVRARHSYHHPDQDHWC
T1 sequence (P54290 25-944 partner limits assumed): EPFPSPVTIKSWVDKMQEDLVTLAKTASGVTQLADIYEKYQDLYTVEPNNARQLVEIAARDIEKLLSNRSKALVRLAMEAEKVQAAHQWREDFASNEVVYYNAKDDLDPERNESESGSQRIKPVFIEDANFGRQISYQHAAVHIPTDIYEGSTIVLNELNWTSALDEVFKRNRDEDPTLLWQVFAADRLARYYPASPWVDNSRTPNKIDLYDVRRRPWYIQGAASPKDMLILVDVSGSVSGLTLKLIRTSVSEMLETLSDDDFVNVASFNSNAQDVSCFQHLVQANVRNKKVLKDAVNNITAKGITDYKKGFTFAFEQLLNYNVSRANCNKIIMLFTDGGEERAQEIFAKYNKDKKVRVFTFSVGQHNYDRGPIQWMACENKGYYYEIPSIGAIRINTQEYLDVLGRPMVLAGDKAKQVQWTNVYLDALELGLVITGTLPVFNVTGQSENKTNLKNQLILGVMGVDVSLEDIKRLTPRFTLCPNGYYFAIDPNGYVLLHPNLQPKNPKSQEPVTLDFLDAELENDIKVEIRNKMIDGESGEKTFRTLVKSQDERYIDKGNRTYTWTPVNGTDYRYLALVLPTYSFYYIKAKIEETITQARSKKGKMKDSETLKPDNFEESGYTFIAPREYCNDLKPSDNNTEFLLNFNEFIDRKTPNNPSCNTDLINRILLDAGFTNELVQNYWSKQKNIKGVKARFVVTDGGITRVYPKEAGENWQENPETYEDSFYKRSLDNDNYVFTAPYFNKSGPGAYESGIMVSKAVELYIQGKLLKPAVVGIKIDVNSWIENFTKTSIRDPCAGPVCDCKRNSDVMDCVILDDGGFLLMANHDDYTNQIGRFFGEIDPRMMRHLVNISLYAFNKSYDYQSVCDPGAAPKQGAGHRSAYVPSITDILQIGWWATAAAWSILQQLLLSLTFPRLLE
T1 sequence (P54290 945-1091 partner limits assumed): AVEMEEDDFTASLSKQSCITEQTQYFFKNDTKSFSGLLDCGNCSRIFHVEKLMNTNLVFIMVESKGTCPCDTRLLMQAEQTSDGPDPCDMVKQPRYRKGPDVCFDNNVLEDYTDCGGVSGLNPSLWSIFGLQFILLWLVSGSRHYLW
T1 sequence (P54283 whole entry partner): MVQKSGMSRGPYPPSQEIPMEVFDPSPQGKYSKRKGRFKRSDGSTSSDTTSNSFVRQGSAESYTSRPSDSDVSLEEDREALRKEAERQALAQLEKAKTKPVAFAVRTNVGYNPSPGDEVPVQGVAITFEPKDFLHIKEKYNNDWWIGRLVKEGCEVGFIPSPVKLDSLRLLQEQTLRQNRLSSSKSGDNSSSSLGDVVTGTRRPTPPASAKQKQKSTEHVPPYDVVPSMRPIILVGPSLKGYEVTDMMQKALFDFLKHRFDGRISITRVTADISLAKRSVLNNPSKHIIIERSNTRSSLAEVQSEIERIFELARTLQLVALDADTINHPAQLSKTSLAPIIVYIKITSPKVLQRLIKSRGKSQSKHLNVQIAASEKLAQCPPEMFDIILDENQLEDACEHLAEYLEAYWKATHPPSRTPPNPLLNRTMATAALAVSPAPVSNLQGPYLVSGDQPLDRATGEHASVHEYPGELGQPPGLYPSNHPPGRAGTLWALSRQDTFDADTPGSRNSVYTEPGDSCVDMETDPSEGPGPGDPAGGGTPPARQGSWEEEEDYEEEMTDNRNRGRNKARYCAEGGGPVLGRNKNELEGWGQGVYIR
T3 sequence (Q02294 whole entry): as the sequence (Q02294 whole entry) above
T3 sequence (P54290 25-944 partner limits assumed): as the sequence (P54290 25-944 partner limits assumed) above
T3 sequence (P54290 945-1091 partner limits assumed): as the sequence (P54290 945-1091 partner limits assumed) above
T3 sequence (P54283 whole entry partner): as the sequence (P54283 whole entry partner) above

On to `O=C(CC(c1ccccc1)c1ccccc1)N1CCN(C(c2ccccc2)c2ccccc2)CC1` [39-1-B4], for which the “N-type channel inhibition at higher frequencies (in words)” value (shortened to “N-type channel inhibition”) in assay [1] (0.2 Hz) is on record as “most potent inhibitors at higher frequencies”. For the same molecule, the IC50 in assay [1] (setting [7]) is 0.04 µM; in assay [1] (setting [8]) it was 0.2 µM; in assay [1] (setting [9]), 0.04 µM; in assay [2] (setting [10]), 0.12 µM; in assay [2] (setting [11]) it was 0.65 µM; in assay [2] (setting [12]), 0.12 µM. For the same molecule, the figures for the IC50 in assay [4] (setting [13]), in assay [4] (setting [14]) and in assay [4] (setting [15]) were 0.3 µM, 0.5 µM and 0.3 µM, respectively. Further, the “% Block (100 nM) 0.03 Hz” value in assay [1] (α1B (N-type)) worked out at 34%; in assay [2] (α1A (P/Q-type), 0.03 Hz), 31%; in assay [4] (α1C (L-type), 0.03 Hz), 19%. Also, the “% Block (100 nM) 0.2 Hz” value was found to be 72% in assay [1] (α1B (N-type)); 52% in assay [2] (α1A (P/Q-type), 0.2 Hz); 29% in assay [4] (α1C (L-type), 0.2 Hz). The “IC50 values on P/Q-type channels compared with N-type (in words)” value in assay [3] is on record as “higher than those exhibited with respect to N-type channels”. Also, the “IC50 values on L-type channels compared with N-type (in words)” value in assay [5] is listed as “higher than those exhibited with respect to N-type channels”.

As to `COc1cc(CN2CCN(CCCCCC(c3ccc(F)cc3)c3ccc(F)cc3)CC2)cc(OC)c1OC` [39-45-3], the “N-type channel inhibition” value in assay [1] (0.2 Hz) is “most potent inhibitors at higher frequencies”. In addition, the IC50 in assay [1] (setting [7]) is 0.03 µM; in assay [1] (setting [8]) it was 0.1 µM; in assay [1] (setting [9]), 0.03 µM; in assay [2] (setting [10]), 0.09 µM; in assay [2] (setting [11]), 0.41 µM; in assay [2] (setting [12]), 0.09 µM. In addition, the IC50 is 0.37 µM in assay [4] (setting [13]), 0.74 µM in assay [4] (setting [14]) and 0.37 µM in assay [4] (setting [15]). Besides, the “% Block (100 nM) 0.03 Hz” value in assay [1] (α1B (N-type)) was 50%; in assay [2] (α1A (P/Q-type), 0.03 Hz), 27%; in assay [4] (α1C (L-type), 0.03 Hz), 15%. In addition, the “% Block (100 nM) 0.2 Hz” value in assay [1] (α1B (N-type)) is reported as 79%; in assay [2] (α1A (P/Q-type), 0.2 Hz), 58%; in assay [4] (α1C (L-type), 0.2 Hz), 26%. For the same molecule, in assay [3], the “IC50 values on P/Q-type channels compared with N-type (in words)” value is recorded as “higher than those exhibited with respect to N-type channels”. The “IC50 values on L-type channels compared with N-type (in words)” value in assay [5] is given as “higher than those exhibited with respect to N-type channels”.

As to `O=C(CCCCC(c1ccccc1)c1ccccc1)N1CCC(NCC2CCCCC2)CC1` [JM-G-10], in assay [1] (0.2 Hz), the “N-type channel inhibition” value is “most potent inhibitors at higher frequencies”. In addition, the IC50 was 0.06 µM in assay [1] (setting [7]); 0.17 µM in assay [1] (setting [8]); 0.06 µM in assay [1] (setting [9]); 0.07 µM in assay [2] (setting [10]); 0.3 µM in assay [2] (setting [11]); 0.07 µM in assay [2] (setting [12]). The IC50 in assay [4] (setting [13]) is 0.3 µM; in assay [4] (setting [14]), 1.17 µM; in assay [4] (setting [15]), 0.3 µM. Moreover, the “% Block (100 nM) 0.03 Hz” value is given as 38% in assay [1] (α1B (N-type)); 28% in assay [2] (α1A (P/Q-type), 0.03 Hz); 7% in assay [4] (α1C (L-type), 0.03 Hz). Further, the “% Block (100 nM) 0.2 Hz” value in assay [1] (α1B (N-type)) is 63%; in assay [2] (α1A (P/Q-type), 0.2 Hz), 62%; in assay [4] (α1C (L-type), 0.2 Hz) it was 15%. Besides, the “IC50 values on P/Q-type channels compared with N-type (in words)” value in assay [3] was “higher than those exhibited with respect to N-type channels”. Besides, the “IC50 values on L-type channels compared with N-type (in words)” value in assay [5] is recorded as “higher than those exhibited with respect to N-type channels”.

Regarding `O=C(CCCCC(c1ccccc1)c1ccccc1)N1CCN(C/C=C/c2ccccc2)CC1` [MC-34D], the “N-type channel inhibition” value in assay [1] (0.2 Hz) is “most potent inhibitors at higher frequencies”. Further, the IC50 in assay [1] (setting [7]) is 0.05 µM; in assay [1] (setting [8]), 0.12 µM; in assay [1] (setting [9]), 0.05 µM; in assay [2] (setting [10]), 0.08 µM; in assay [2] (setting [11]) it was 0.35 µM; in assay [2] (setting [12]), 0.08 µM. Moreover, the results for the IC50 in assay [4] (setting [13]), in assay [4] (setting [14]) and in assay [4] (setting [15]) were 0.39 µM, 0.63 µM and 0.39 µM, respectively. Also, the “% Block (100 nM) 0.03 Hz” value in assay [1] (α1B (N-type)) was determined as 47%; in assay [2] (α1A (P/Q-type), 0.03 Hz), 31%; in assay [4] (α1C (L-type), 0.03 Hz), 14%. For the same molecule, the “% Block (100 nM) 0.2 Hz” value in assay [1] (α1B (N-type)) is given as 73%; in assay [2] (α1A (P/Q-type), 0.2 Hz) it was 56%; in assay [4] (α1C (L-type), 0.2 Hz), 24%. In addition, the “IC50 values on P/Q-type channels compared with N-type (in words)” value in assay [3] is “higher than those exhibited with respect to N-type channels”. For the same molecule, the “IC50 values on L-type channels compared with N-type (in words)” value in assay [5] is “higher than those exhibited with respect to N-type channels”.

Turning to `c1ccc(C(CCN2CCC(NCC3CCCCC3)CC2)c2ccccc2)cc1` [Φ, Φ; CH(CH2)2; CHNH; 1; Cy], the IC50 in assay [6] was 2000 to 3000 nM.

Consider `c1ccc(CNC2CCN(CCC(c3ccccc3)c3ccccc3)CC2)cc1` [Φ, Φ; CH(CH2)2; CHNH; 1; Φ], for which, in assay [6], the IC50 was 2000 nM.

In the case of `O=C(CCCCC(c1ccccc1)c1ccccc1)N1CCC(NCC2CCCCC2)CC1` [Φ, Φ; CH(CH2)4CO; CHNH; 1; Cy], the IC50 in assay [6] amounted to 750 nM.

For the molecule `c1ccc(C(CN2CCC(NCC3CCCCC3)CC2)c2ccccc2)cc1` [Φ, Φ; CHCH2; CHNH; 1; Cy], in assay [6], the IC50 was in the range of 3000 to 4000 nM.

In the case of `c1ccc(CNC2CCN(CC(c3ccccc3)c3ccccc3)CC2)cc1` [Φ, Φ; CHCH2; CHNH; 1; Φ], the IC50 in assay [6] is ~3000 nM.

As for `C(CCN1CCN(CC2CCCCC2)CC1)=C(c1ccccc1)c1ccccc1` [Φ, Φ; C═CH(CH2)2; N; 1; Cy], in assay [6], the IC50 was determined as 5200 nM.

The record behind these values is patent US7064128B2, “Preferentially substituted calcium channel blockers” (NeuroMed Technologies, Inc., priority 1998, dated 2006).
